From US20170232083A1, “METHODS OF DIAGNOSIS AND TREATMENT OF CELIAC DISEASE IN CHILDREN” (priority 2014, published 2017)

Tested on: PBMC (polyclonal gluten-specific T cells) of paediatric and adult CD patients
Test: IFN-γ ELISpot of PBMC after 3 day oral wheat challenge (SFU, % of maximal peptide response, dominance scores, EC50; Examples 5-6)
Format: cell-based, human
Conditions: for IFN-γ ELISpot response: after oral wheat challenge; for Cross-reactive T cell response: following wheat challenge
[1] = subject I (3-5yrs/6-10yrs part)
[2] = subject J (3-5yrs/6-10yrs part)
[3] = subject K (3-5yrs/6-10yrs part)
[4] = subject V (3-5yrs/6-10yrs part)
[5] = subject W (3-5yrs/6-10yrs part)
[6] = subject Y (3-5yrs/6-10yrs part)
[7] = subject five (3-5yrs/6-10yrs part)
[8] = subject seven (3-5yrs/6-10yrs part)
[9] = subject six (3-5yrs/6-10yrs part)
[10] = subject ten (3-5yrs/6-10yrs part)
[11] = subject two (3-5yrs/6-10yrs part)

QPFPQPEQPFPWQP
IFN-γ ELISpot response (patient A, 11-17 yrs, cut-off 10 SFU): 3.5 SFU
Significant response as percentage of maximal peptide SFU (patient D, max peptide 30.5 SFU): + (>70% = +)
IFN-γ ELISpot response (patient E, H, 11-17 yrs, cut-off 10 SFU): 44 SFU
Significant response as percentage of maximal peptide SFU (patient E, max peptide 224 SFU): ′ (11-20% = ′)
IFN-γ ELISpot response (patient F, 11-17 yrs, cut-off 10 SFU): 84.5 SFU
Significant response as percentage of maximal peptide SFU (patient F, max peptide 178 SFU): ′′′ (41-70% = ′′′)
IFN-γ ELISpot response (patient G, 11-17 yrs, cut-off 10 SFU): 8 SFU
IFN-γ ELISpot response (patient H (HLA-DQ2.5 homozygote), 3-5yrs, cut-off 10 SFU): 27.5 SFU
IFN-γ ELISpot response (patient H, 11-17 yrs, cut-off 10 SFU): 8.5 SFU
IFN-γ ELISpot response (patient ID not given, 11-17 yrs, cut-off 10 SFU): 67.5 SFU
Significant response as percentage of maximal peptide SFU (patient ID not given, max peptide 95 SFU): + (>70% = +)
Significant response as percentage of maximal peptide SFU (patient II, max peptide 15 SFU): + (>70% = +)
Significant response as percentage of maximal peptide SFU (patient J, max peptide 196 SFU): ′′′ (41-70% = ′′′)
Significant response as percentage of maximal peptide SFU (patient K, max peptide 53 SFU): ′′ (21-40% = ′′)
Significant response as percentage of maximal peptide SFU (patient M, max peptide 48 SFU): ′′′ (41-70% = ′′′)
IFN-γ ELISpot response (patient N, 3-5yrs, cut-off 10 SFU): 7 SFU
IFN-γ ELISpot response (patient P, 11-17 yrs, cut-off 21.6 SFU): 20 SFU
IFN-γ ELISpot response (patient Q, 11-17 yrs, cut-off 10 SFU): 63 SFU
IFN-γ ELISpot response (patient U, H, 11-17 yrs, cut-off 10 SFU): 17 SFU
Significant response as percentage of maximal peptide SFU (patient U, max peptide 81 SFU): ′′ (21-40% = ′′)
IFN-γ ELISpot response (patient V, 6-10 yrs, cut-off 10 SFU): 25 SFU
Significant response as percentage of maximal peptide SFU (patient V, max peptide 35 SFU): + (>70% = +)
IFN-γ ELISpot response (patient Y, 6-10 yrs, cut-off 10 SFU): 10 SFU
Significant response as percentage of maximal peptide SFU (patient Y, max peptide 16 SFU): ′′′ (41-70% = ′′′)
Significant response as percentage of maximal peptide SFU (patient Z, max peptide 13 SFU): + (>70% = +)
IFN-γ ELISpot response (patient eleven, 6-10 yrs, cut-off 10 SFU): 20.5 SFU
Significant response as percentage of maximal peptide SFU (patient eleven, max peptide 57 SFU): ′′ (21-40% = ′′)
Significant response as percentage of maximal peptide SFU (patient five, max peptide 48 SFU): + (>70% = +)
IFN-γ ELISpot response (patient four, 3-5yrs, cut-off 10 SFU): 28.5 SFU
Significant response as percentage of maximal peptide SFU (patient four, max peptide 44 SFU): ′′′ (41-70% = ′′′)
IFN-γ ELISpot response (patient seven, 6-10 yrs, cut-off 10.5 SFU): 11 SFU
Significant response as percentage of maximal peptide SFU (patient seven, max peptide 27 SFU): ′′′ (41-70% = ′′′)
IFN-γ ELISpot response (patient six, 3-5yrs, cut-off 10 SFU): 10 SFU
Significant response as percentage of maximal peptide SFU (patient six, max peptide 13 SFU): + (>70% = +)
IFN-γ ELISpot response (patient ten, 3-5yrs, cut-off 10 SFU): 14.5 SFU
Significant response as percentage of maximal peptide SFU (patient ten, max peptide 14.5 SFU): + (>70% = +)
IFN-γ ELISpot response (patient three, 6-10 yrs, cut-off 10.5 SFU): 95 SFU
IFN-γ ELISpot response (patient twelve, 11-17 yrs, cut-off 10 SFU): 30.5 SFU
IFN-γ ELISpot response (patient two, 3-5yrs, cut-off 10 SFU): 52.5 SFU
Significant response as percentage of maximal peptide SFU (patient two, max peptide 60 SFU): + (>70% = +)
Cross-reactive T cell response (subject A, 11-17yrs): 15 SFU
Significant response as a percentage of maximal peptide SFU (subject D, 11-17yrs): + (>70% = +)
Cross-reactive T cell response (subject D, 11-17yrs): 30.5 SFU
Significant response as a percentage of maximal peptide SFU (subject E, 11-17yrs): ′ (11-20% = ′)
Cross-reactive T cell response (subject E, 11-17yrs): 44 SFU
Significant response as a percentage of maximal peptide SFU (subject F, 11-17yrs): ′′′ (41-70% = ′′′)
Cross-reactive T cell response (subject F, 11-17yrs): 845 SFU
Cross-reactive T cell response (subject G, 11-17yrs): 8 SFU
Cross-reactive T cell response (subject H): 8.5 SFU
Cross-reactive T cell response [1]: 5.5 SFU
Cross-reactive T cell response [2]: 95- SFU
Significant response as a percentage of maximal peptide SFU (subject K): ′′ (21-40% = ′′)
Cross-reactive T cell response [3]: 18.5 SFU
Cross-reactive T cell response (subject P, 11-17yrs): 20 SFU
Significant response as a percentage of maximal peptide SFU (subject Q, 11-17yrs): ′′′ (41-70% = ′′′)
Cross-reactive T cell response (subject Q, 11-17yrs): 63 SFU
Cross-reactive T cell response (subject T, 11-17yrs): 67.5 SFU
Significant response as a percentage of maximal peptide SFU (subject U, 11-17yrs): ′′ (21-40% = ′′)
Cross-reactive T cell response (subject U, 11-17yrs): 17 SFU
Significant response as a percentage of maximal peptide SFU (subject V): + (>70% = +)
Cross-reactive T cell response [4]: 25 SFU
Cross-reactive T cell response [5]: 9 SFU
Cross-reactive T cell response [6]: 10- SFU
Significant response as a percentage of maximal peptide SFU (subject five): + (>70% = +)
Cross-reactive T cell response [7]: 40.5 SFU
Cross-reactive T cell response (subject nine, 11-17yrs): 15 SFU
Significant response as a percentage of maximal peptide SFU (subject seven): ′′ (21-40% = ′′)
Cross-reactive T cell response [8]: 11 SFU
Significant response as a percentage of maximal peptide SFU (subject six): + (>70% = +)
Cross-reactive T cell response [9]: 10 SFU
Significant response as a percentage of maximal peptide SFU (subject ten): + (>70% = +)
Cross-reactive T cell response [10]: 14.5 SFU
Significant response as a percentage of maximal peptide SFU (subject two): + (>70% = +)
Cross-reactive T cell response [11]: 52.5 SFU

QPFPQPEQPFRQQ
Cross-reactive T cell response (subject A, 11-17yrs): 1 SFU
Significant response as a percentage of maximal peptide SFU (subject D, 11-17yrs): ′′′ (41-70% = ′′′)
Cross-reactive T cell response (subject D, 11-17yrs): 15 SFU
Significant response as a percentage of maximal peptide SFU (subject E, 11-17yrs): ′ (11-20% = ′)
Cross-reactive T cell response (subject E, 11-17yrs): 37 SFU
Significant response as a percentage of maximal peptide SFU (subject F, 11-17yrs): ′ (11-20% = ′)
Cross-reactive T cell response (subject F, 11-17yrs): 21 SFU
Cross-reactive T cell response (subject G, 11-17yrs): 3 SFU
Cross-reactive T cell response (subject H): 0 SFU
Cross-reactive T cell response [1]: 4 SFU
Significant response as a percentage of maximal peptide SFU (subject J): (6-10% - ^)
Cross-reactive T cell response [2]: 15 SFU
Significant response as a percentage of maximal peptide SFU (subject K): ′′ (21-40% = ′′)
Cross-reactive T cell response [3]: 21 SFU
Cross-reactive T cell response (subject P, 11-17yrs): 16 SFU
Significant response as a percentage of maximal peptide SFU (subject Q, 11-17yrs): ′′′ (41-70% = ′′′)
Cross-reactive T cell response (subject Q, 11-17yrs): 44 SFU
Significant response as a percentage of maximal peptide SFU (subject T, 11-17yrs): ′′′ (41-70% = ′′′)
Cross-reactive T cell response (subject T, 11-17yrs): 58 SFU
Significant response as a percentage of maximal peptide SFU (subject U, 11-17yrs): ′′ (21-40% = ′′)
Cross-reactive T cell response (subject U, 11-17yrs): 21 SFU
Significant response as a percentage of maximal peptide SFU (subject V): ′′′ (41-70% = ′′′)
Cross-reactive T cell response [4]: 20 SFU
Cross-reactive T cell response [5]: 8 SFU
Cross-reactive T cell response [6]: 8 SFU
Significant response as a percentage of maximal peptide SFU (subject five): + (>70% = +)
Cross-reactive T cell response [7]: 37 SFU
Cross-reactive T cell response (subject nine, 11-17yrs): 0 SFU
Cross-reactive T cell response [8]: 6 SFU
Cross-reactive T cell response [9]: 5 SFU
Cross-reactive T cell response [10]: 6 SFU
Significant response as a percentage of maximal peptide SFU (subject two): ′′ (21-40% = ′′)
Cross-reactive T cell response [11]: 24 SFU
